Source: publication PMC10357585 (Biochemistry, 2023)
Marks after values point to notes of the source that are not given here. One block for each molecule: values may come before it.

Assays:
TcHGXPRT [1] = target: T1, TcHGXPRT (Trypanosoma cruzi, UniProt Q4DRC3); test: Dead-end inhibition studies of TcHGXPRT; format: biochemical
T1 sequence (Q4DRC3 1-231): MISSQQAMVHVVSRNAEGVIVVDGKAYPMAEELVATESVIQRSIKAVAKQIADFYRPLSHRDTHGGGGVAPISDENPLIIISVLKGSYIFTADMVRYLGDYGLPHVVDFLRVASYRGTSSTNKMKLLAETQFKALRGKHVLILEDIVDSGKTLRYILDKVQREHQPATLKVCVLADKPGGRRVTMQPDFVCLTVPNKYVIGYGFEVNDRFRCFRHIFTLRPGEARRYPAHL

TcHGPRT = conditions: variable substrate PRPP (20–215 μM); ref Wenck et al., 2004.[30]; cited from earlier work
TcA (HGPRT) = conditions: variable 6-oxopurine, PRPP 1 mM, ref Glockzin et al., 2022.[43]; cited from earlier work
TcHGXPRT [2] = target: T1, TcHGXPRT; test: Initial rate studies of TcHGXPRT, GMP biosynthesis; format: biochemical; conditions: for kcat: GMP biosynthesis; for Ki: Ki,PRPP
TcHGXPRT [3] = target: T1, TcHGXPRT; test: Product inhibition studies of TcHGXPRT; format: biochemical; conditions: PRPP 1 mM
PfHGXPRT = conditions: read-out: apparent Km, Xan as substrate; cited from earlier work
[4] = variable substrate Guanine (10–300 μM) at fixed PRPP levels
[5] = variable substrate PRPP (1–78 μM) at fixed Gua levels

SMILES: O=c1[nH]c(=O)c2[nH]ccc2[nH]1 [9-deazaxanthine]
Ki (TcHGXPRT [1]): 70 ± 10 µM
Inhibition pattern (TcHGXPRT [1]; 9-deazaxanthine (0–250 μM) vs. variable Xan (3–100 μM), PRPP 1 mM): C ^e
Inhibition pattern (TcHGXPRT [1]; 9-deazaxanthine (0–600 μM) vs. variable PRPP (23–750 μM), Xan 120 μM): UC ^e
Kii (TcHGXPRT [1]; 9-deazaxanthine vs. variable PRPP, Xan 120 μM, 37 °C, pH 8.3, 12 mM MgCl2): 490 ± 40 µM

SMILES: O=c1[nH]cnc2nc[nH]c12 [Hx, hypoxanthine]
Km (TcA (HGPRT)): 13 ± 4 µM
kcat (TcA (HGPRT)): 32 ± 1 ^b s^–1

SMILES: O=P(O)(O)OC[C@H]1O[C@H](OP(=O)(O)OP(=O)(O)O)[C@H](O)[C@@H]1O [PRPP, 5-phospho-D-ribose 1-pyrophosphate]
KPRPP (TcHGPRT): 32 ± 5 ^d μM
kcat/KPRPP (TcHGPRT): 1010 ^d × 10^3 M^–1 s^–1
kcat (TcHGXPRT [2]; [5]): 0.44 ± 0.02 s^–1
Ki (TcHGXPRT [2]; [4]): 700 ± 200 nM
Ki (TcHGXPRT [2]; [5]): 600 ± 300 nM

SMILES: O=c1[nH]c(=O)c2nc[nH]c2[nH]1 [Xan, xanthine]
Km (PfHGXPRT): 189 to 420 µM
Km (TcA (HGPRT)): 160 ± 40 µM
kcat (TcA (HGPRT)): 0.005 ± 0.0006 ^b s^–1

Now from value to molecule, other results behind:

kcat (TcHGXPRT [2]; [4]): 0.46 ± 0.01 s^–1
SMILES: Nc1nc2nc[nH]c2c(=O)[nH]1 [Gua, guanine]
KGua (TcHGPRT): 12 ± 1 ^d μM
kcat/KGua (TcHGPRT): 2650 ^d × 10^3 M^–1 s^–1
Km (TcA (HGPRT)): 19 ± 1 µM
kcat (TcA (HGPRT)): 32 ± 1 ^b s^–1

Inhibition pattern (TcHGXPRT [3]; PPi (0–200 μM) vs. variable Xan (2.5–150 μM)): NC ^e
Kii (TcHGXPRT [3]; PPi vs. variable Xan): 1400 ± 400 µM
Ki (TcHGXPRT [3]; read-out: Kis, PPi vs. variable Xan): 190 ± 40 µM
SMILES: O=P(O)(O)OP(=O)(O)O [PPi, pyrophosphate]
